Measurements as given in US6849598B1, “Therapeutic compositions comprising bactericidal/permeability-increasing (BPI) protein products” (XOMA, priority 1995, dated 2005).
In brackets after ≈: the same amount, converted by molar mass. Read-outs that look alike come from different tables or passages of the source.

Legend:
[1] = tested on: P. aeruginosa (ATCC 19660); assay: Antibiotic susceptibility (MIC, Microscan® MIC Plus Type 2 panel) with rBPI21/P123 and EDTA; assay type: cell-based; parameters: key to susceptibility interpretation of MIC (superscript): R: resistant; I: intermediate; S: susceptible; settings: for effect of EDTA added to the rBPI21/P123 formulation on susceptibility of the strain to the antibiotic: summary of Table 17
Experimental: In additional experiments, a BPI protein product, rBPI21, was formulated with an anti-bacterial activity enhancing poloxamer, specifically PLURONIC P123, and with various concentrations of EDTA, and was evaluated for its effect on the antibiotic susceptibility of a Pseudomonas aeruginosa (ATCC 19660). Antibiotic susceptibility was determined using Microscan® panel plates (Dade Microscan, West Sacramento, Calif.) that allow simultaneous determination of minimum inhibitory concentrations for a number of different antibiotics.
The antimicrobial susceptibility tests performed on the Microscan® panel plates are miniaturizations of the broth dilution susceptibility test. Antimicrobial agents are serially diluted in Mueller-Hinton broth (supplemented with calcium and magnesium, or with sodium chloride for oxacillin, or with thymidine phosphorylase for trimethoprim, sulfamethoxazole and trimethoprim/ sulfamethoxazole) to concentrations bridging the range of clinical interest. One well on the 96-well Microscan® plate is a growth control well that contains dehydrated broth only. The remaining wells contain dehydrated broth and antibiotic (or broth and biochemical reagent indicator), which is rehydrated to the desired concentration by inoculation of a standardized suspension of test organism. The chromogenic biochemical agent indicators are used to identify and characterize the species of bacteria based on detection of pH changes and substrate utilization. […] Gram-negative and gram positive organisms may be tested using any of the Microscan® panel plates (Microscan®, Dade Microscan, West Sacramento, Calif.). In these experiments with P. aeruginosa, the MIC Plus Type 2 panel plates were used. The concentrations of antibiotics tested in this panel plate are shown below in Table 16. The antibiotic susceptibility standards (interpretation of an MIC as resistant, intermediate or susceptible according to Microscan®'s NCCLS-derived standards) applicable to the gram-negative organisms that may be tested in each panel plate appear below in Table 16A.
For these experiments with P. aeruginosa, the following procedure was performed: The organism was streaked onto TSA plates (Remel, Lenexa, Kans.) and incubated for 18-24 hours overnight. Well-isolated A, colonies from the plates were emulsified in 3 ml of sterile Inoculum Water d(catalog no. B1015-2, MicrosScan® system, Dade Microscan, West Sacramento, Calif.) to a final turbidity equivalent to 0.5 McFarland Barium Sulfate standard. This cell suspension was vortexed for 2 to 3 seconds and 100 μl was transferred to glass tubes containing 25 ml of Inoculum Water with Pluronic-D (catalog no. B1015-7, MicroScan® system, Dade Microscan, West Sacramento, Calif.) (hereinafter “Pluronic Inoculum Water”), or 25 ml of Pluronic Inoculum Water into which rBPI21 in 0.2% PLURONIC P123, 0.002% TWEEN 80, 5mM sodium citrate, 150 mM NaCl (“rBPI21/P123”) had been diluted to 64 μg/ml rBPI21.
The 25 ml of this inoculum containing rBPI21 was mixed by inversion and poured into a tray. The inoculum was drawn up into a manual 96-well pipetting system (RENOK^− rehydrator-inoculator system, Dade Microscan, West Sacramento, Calif.) designed for use with the Microscan® panel plates, and 110 μl of the inoculum was delivered to each well of a Microscan® MIC Plus Type 2 panel plate. When added to the wells, this inoculum achieves a final bacterial concentration of 4×10^5 to 7×10^5 CFU/ml. The panel plates were then incubated at 35° C. for 15-24 hours and read visually for cell growth.
No growth was defined as a slight whiteness in the well or a clear broth. Growth appeared as turbidity which could take the form of a white haze throughout the well, a white button in the center of the well, or a fine granule growth throughout the well. All wells were read against a black indirectly lighted background. Visual results of the biochemical reactions were read into a database for bacterial identification.

E. faecium = assay: Antibiotic susceptibility (MIC, Sensititre Trays) with rBPI21 poloxamer formulations; assay type: cell-based; settings: for MIC: Enterococcus faecium, read-out: Minimum Inhibitory Concentration
Experimental: The effect of therapeutic compositions of rBPI21 formulated with poloxamer, with or without EDTA, was evaluated on the antibiotic susceptibility of the multiple drug resistant A. baumannii, S. pneumoniae, E. faecium and P. aeruginosa organisms of Example 5. Therapeutic compositions were prepared containing 2 mg/mL rBPI21, (5 mM sodium citrate, 150 mM NaCl) with a 0.2% (w/v) concentration of PLURONIC F68, P103, P104, P105 or P123. The effect on the antibiotic susceptibility of the organisms was determined in Mueller-Hinton Broth plus Cations (CSMHB, Remel), or 40% pooled human serum in CSMHB (Sigma, St. Louis, Mo.), as follows.
Isolated colonies of the organism from overnight cultures were suspended in Microscan® Inoculum Water to a concentration equivalent to a 0.5 McFarland Standard (approximately 1×10^8 CFU/ml), determined using a Microscan® turbidimeter. Aliquots were transferred to either CSMHB or 40% pooled human serum in CSMHB. Each tube contained either a final concentration of 16 μg/mL rBPI21 or an equivalent volume of control buffer. Minimal inhibitory concentrations (MIC) for each antibiotic tested, i.e. the lowest concentration of antibiotic which inhibits visible growth, were determined using gram-negative (MB and MC) and gram-positive (MA) Sensititre Trays (Radiometer America, Westlake, Ohio), which allow for the rapid and simultaneous survey of a broad spectrum of standard antibiotics. Any other antimicrobial panel systems known in the art, such as the Microscan® (Dade Microscan, Sacramento, Calif.), Pasco (DIFCO, Detroit, Mich.) and Alamar (Alamar, Sacramento, Calif.) systems, may alternatively be used to assay for antibiotic susceptibility.
Tables 12-15 below display a summary of the results of the antibiotic screening panels, reported for each strain tested as the MIC of the tested antibiotics in the presence of the indicated rBPI21 therapeutic composition. The antibiotic susceptibility standards (interpretation of an MIC as clinically resistant (R), intermediate (I) or susceptible (S) according to NCCLS standards) applicable to the organism tested appear in superscript next to the MIC.

[2] = rBPI21/P123 at 64 μg/ml rBPI21, With 0% EDTA
[3] = rBPI21/P123 at 64 μg/ml rBPI21, With 0.01% EDTA
[4] = rBPI21/P123 at 64 μg/ml rBPI21, With 0.05% EDTA
[5] = rBPI21/P123 at 64 μg/ml rBPI21, With 0.1% EDTA
[6] = CSMHB, 16 μg/mL rBPI21 with F68
[7] = CSMHB, 16 μg/mL rBPI21 with P103
[8] = CSMHB, 16 μg/mL rBPI21 with P104
[9] = CSMHB, 16 μg/mL rBPI21 with P105
[10] = CSMHB, 16 μg/mL rBPI21 with P123
[11] = Serum, 16 μg/mL rBPI21 with F68
[12] = Serum, 16 μg/mL rBPI21 with P103
[13] = Serum, 16 μg/mL rBPI21 with P104
[14] = Serum, 16 μg/mL rBPI21 with P105
[15] = Serum, 16 μg/mL rBPI21 with P123

Compound	Minimum Inhibitory Concentration of Antibiotic ([1]; Control (No BPI21)) [µg/mL]	susceptibility interpretation of MIC (superscript) ([1]; Control (No BPI21))	Minimum Inhibitory Concentration of Antibiotic [1, 2] [µg/mL]	susceptibility interpretation of MIC (superscript) [1, 2]	Minimum Inhibitory Concentration of Antibiotic [1, 3] [µg/mL]	susceptibility interpretation of MIC (superscript) [1, 3]	Minimum Inhibitory Concentration of Antibiotic [1, 4] [µg/mL]	susceptibility interpretation of MIC (superscript) [1, 4]	Minimum Inhibitory Concentration of Antibiotic [1, 5] [µg/mL]	susceptibility interpretation of MIC (superscript) [1, 5]	susceptibility interpretation of MIC (superscript) (E. faecium; [6])	susceptibility interpretation of MIC (superscript) (E. faecium; [7])	susceptibility interpretation of MIC (superscript) (E. faecium; [8])	susceptibility interpretation of MIC (superscript) (E. faecium; [9])	susceptibility interpretation of MIC (superscript) (E. faecium; [10])	susceptibility interpretation of MIC (superscript) (E. faecium; CSMHB, Control (no BPI))	MIC (E. faecium; [6]) [µg/mL]	MIC (E. faecium; [7]) [µg/mL]	MIC (E. faecium; [8]) [µg/mL]	MIC (E. faecium; [9]) [µg/mL]	also measured
O=C(O)c1cn(C2CC2)c2cc(N3CCNCC3)c(F)cc2c1=O [Ciprofloxacin]	< 0.25	S	< 0.25	S	< 0.25	S	< 0.25	S	< 0.25	S	S	S	S	S	S	I	1 (≈ 3.02 µM)	< 0.5	1 (≈ 3.02 µM)	1 (≈ 3.02 µM)	MIC (E. faecium; [10]): 1 µg/mL (≈ 3.02 µM); MIC (E. faecium; CSMHB, Control (no BPI)): 2 µg/mL (≈ 6.04 µM); susceptibility interpretation of MIC (superscript) (E. faecium; [11]): S; susceptibility interpretation of MIC (superscript) (E. faecium; [12]): I; susceptibility interpretation of MIC (superscript) (E. faecium; [13]): I; susceptibility interpretation of MIC (superscript) (E. faecium; [14]): I; susceptibility interpretation of MIC (superscript) (E. faecium; [15]): I; susceptibility interpretation of MIC (superscript) (E. faecium; Serum, Control (no BPI)): I
CO[C@H]1/C=C/O[C@@]2(C)Oc3c(C)c(O)c4c(O)c(c(/C=N/N5CCN(C)CC5)c(O)c4c3C2=O)NC(=O)/C(C)=C\C=C\[C@H](C)[C@H](O)[C@@H](C)[C@@H](O)[C@@H](C)[C@H](OC(C)=O)[C@@H]1C [Rifampicin]											S	S	S	S	S	R	0.5 (≈ 0.608 µM)	0.5 (≈ 0.608 µM)	0.5 (≈ 0.608 µM)	0.5 (≈ 0.608 µM)	MIC (E. faecium; [10]): 0.5 µg/mL (≈ 0.608 µM); MIC (E. faecium; CSMHB, Control (no BPI)): 4 µg/mL (≈ 4.86 µM); MIC (E. faecium; [11]): 1 µg/mL (≈ 1.22 µM); MIC (E. faecium; [12]): 1 µg/mL (≈ 1.22 µM); MIC (E. faecium; [13]): > 4 µg/mL; MIC (E. faecium; [14]): 0.5 µg/mL (≈ 0.608 µM); MIC (E. faecium; [15]): 0.5 µg/mL (≈ 0.608 µM); MIC (E. faecium; Serum, Control (no BPI)): 4 µg/mL (≈ 4.86 µM); susceptibility interpretation of MIC (superscript) (E. faecium; [11]): S; susceptibility interpretation of MIC (superscript) (E. faecium; [12]): S; susceptibility interpretation of MIC (superscript) (E. faecium; [13]): R; susceptibility interpretation of MIC (superscript) (E. faecium; [14]): S; susceptibility interpretation of MIC (superscript) (E. faecium; [15]): S; susceptibility interpretation of MIC (superscript) (E. faecium; Serum, Control (no BPI)): R
CC1(C)S[C@@H]2[C@H](NC(=O)[C@H](C(=O)O)c3ccsc3)C(=O)N2[C@H]1C(=O)O [Ticarcillin]	< 16	S	< 16	S	< 16	S	< 16	S	< 16	S											
Amoxicillin/K Clavulanate [Amox/K Clavulanate]	> 32	R	> 32	R	< 1	S	32	R	< 1	S											effect of EDTA added to the rBPI21/P123 formulation on susceptibility of the strain to the antibiotic [1]: reversing resistance
Ampicillin/Sulbactam [Amp/Sulbact]	> 32	R	> 32	R	< 1	S	16	I	16	I											effect of EDTA added to the rBPI21/P123 formulation on susceptibility of the strain to the antibiotic [1]: reversing resistance
Ticarcillin/K Clavulanate [Ticar/K Clavulanate]	< 16	S	< 16	S	< 16	S	< 16	S	< 16	S											
